pIC50: −log10 of the molar value. Read-outs that look alike come from different tables or passages of the source.
Test system: vesicular stomatitis virus particles (VSV) pseudotyped with EboV Zaire GP
Assay: microbe, parasite or virus in culture
Format: cell-based

SMILES	pIC50 (Vesicular stomatitis virus)	pIC50 (read-out: IC50)
O=C(CC12CC3CC(CC(C3)C1)C2)NCC(=O)N1CCN(Cc2c(F)ccc(Cl)c2F)CC1 [Compound 1306, 2-((1R,3R,5S)-Adamantan-1-yl)-N-(2-(4-(3-chloro-2,6-difluorobenzyl)piperazin-1-yl)-2-oxoethyl)acetamide]	5.87	
O=C(CC12CC3CC(CC(C3)C1)C2)NCC(=O)N1CCN(Cc2cc(Cl)c(F)cc2F)CC1 [Compound 1307, 2-((1R,3R,5S)-Adamantan-1-yl)-N-(2-(4-(5-chloro-2,4-difluorobenzyl)piperazin-1-yl)-2-oxoethyl)acetamide]	6.43	
O=C(CC12CC3CC(CC(C3)C1)C2)NCC(=O)N1CCN(Cc2cc(Cl)ccc2C(F)(F)F)CC1 [Compound 1308, 2-((1R,3R,5S)-Adamantan-1-yl)-N-(2-(4-(5-chloro-2-(trifluoromethyl)benzyl)piperazin-1-yl)-2-oxoethyl)acetamide]		< 5.70
O=C(CC12CC3CC(CC(C3)C1)C2)NCC(=O)N1CCN(Cc2cc(Cl)ccc2OC(F)(F)F)CC1 [Compound 1309, 2-((1R,3R,5S)-Adamantan-1-yl)-N-(2-(4-(5-chloro-2-(trifluoromethoxy)benzyl)piperazin-1-yl)-2-oxoethyl)acetamide]	6.38	
COC(=O)c1cccc(-c2ccc(O)c(CN3CCN(C(=O)CNC(=O)CC45CC6CC(CC(C6)C4)C5)CC3)c2)c1 [Compound 1310, Methyl 3′-((4-((2-((1R,3R,5S)-adamantan-1-yl)acetyl)glycyl)piperazin-1-yl)methyl)-4′-hydroxy-[1,1′-biphenyl]-3-carboxylate]	6.51	
COC(=O)c1ccc(COc2ccccc2CN2CCN(C(=O)CNC(=O)CC3(C)CCCCC3)CC2)cc1 [Compound 1311, Methyl 4-((2-((4-((2-(1-methylcyclohexyl)acetyl)glycyl)piperazin-1-yl)methyl)phenoxy)methyl)benzoate]	7.10	
COC(=O)c1ccc(COc2ccccc2CN2CCN(C(=O)CNC(=O)Cc3ccc(F)cc3)CC2)cc1 [Compound 1312, Methyl 4-((2-((4-((2-(4-fluorophenyl)acetyl)glycyl)piperazin-1-yl)methyl)phenoxy)methyl)benzoate]	6.22	
COC(=O)c1ccc(COc2ccccc2CN2CCN(C(=O)CNC(=O)CC3CC(F)(F)C3)CC2)cc1 [Compound 1315, Methyl 4-((2-((4-((2-(3,3-difluorocyclobutyl)acetyl)glycyl)piperazin-1-yl)methyl)phenoxy)methyl)benzoate]	6.40	
COC(=O)c1ccc(COc2ccccc2CN2CCN(C(=O)CNC(=O)C3CC34CCCCC4)CC2)cc1 (stereo not shown) [Compound 1316, Methyl 4-((2-((4-((spiro[2.5]octane-1-carbonyl)glycyl)piperazin-1-yl)methyl)phenoxy)methyl)benzoate]	7.15	
COC(=O)c1ccc(COc2ccccc2CN2CCN(C(=O)CNC(=O)C3CC3(C)C)CC2)cc1 (stereo not shown) [Compound 1317, Methyl 4-((2-((4-((2,2-dimethylcyclopropane-1-carbonyl)glycyl)piperazin-1-yl)methyl)phenoxy)methyl)benzoate]	6.40	
COC(=O)c1ccc(COc2ccccc2CN2CCN(C(=O)CNC(=O)OC3CCC(F)(F)CC3)CC2)cc1 [Compound 1319, Methyl 4-((2-((4-((((4,4-difluorocyclohexyl)oxy)carbonyl)glycyl)piperazin-1-yl)methyl)phenoxy)methyl)benzoate]	6.51	
COC(=O)c1ccc(COc2ccccc2CN2CCN(C(=O)CNC(=O)NC3CCC(F)(F)CC3)CC2)cc1 [Compound 1320, Methyl 4-((2-((4-(((4,4-difluorocyclohexyl)carbamoyl)glycyl)piperazin-1-yl)methyl)phenoxy)methyl)benzoate]	< 5.70	
Nc1ccc(Cl)cc1CN1CCN(C(=O)CNC(=O)CC23CC4CC(CC(C4)C2)C3)CC1 [Compound 1321, 2-((1R,3R,5S)-Adamantan-1-yl)-N-(2-(4-(2-amino-5-chlorobenzyl)piperazin-1-yl)-2-oxoethyl)acetamide]	7.05	
COC(=O)c1cccc(Oc2cc(Cl)cc(CN3CCN(C(=O)CNC(=O)CC45CC6CC(CC(C6)C4)C5)CC3)c2)c1 [Compound 1322, Methyl 3-(3-((4-((2-((1R,3R,5S)-adamantan-1-yl)acetyl)glycyl)piperazin-1-yl)methyl)-5-chlorophenoxy)benzoate]	7.96	
COC(=O)c1ccc(Oc2cc(Cl)cc(CN3CCN(C(=O)CNC(=O)CC45CC6CC(CC(C6)C4)C5)CC3)c2)cc1 [Compound 1323, Methyl 4-(3-((4-((2-((1R,3R,5S)-adamantan-1-yl)acetyl)glycyl)piperazin-1-yl)methyl)-5-chlorophenoxy)benzoate]		7.82
O=C(CC12CC3CC(CC(C3)C1)C2)NCC(=O)N1CCN(Cc2cc(F)c(F)cc2O)CC1 [Compound 1324, 2-((1R,3R,5S)-Adamantan-1-yl)-N-(2-(4-(4,5-difluoro-2-hydroxybenzyl)piperazin-1-yl)-2-oxoethyl)acetamide]	5.82	
O=C(CC12CC3CC(CC(C3)C1)C2)NCC(=O)N1CCN(Cc2cc(F)cc(F)c2O)CC1 [Compound 1325, 2-((1R,3R,5S)-Adamantan-1-yl)-N-(2-(4-(3,5-difluoro-2-hydroxybenzyl)piperazin-1-yl)-2-oxoethyl)acetamide]	6.00	

SMILES	pIC50 (Vesicular stomatitis virus)	pIC50 (read-out: IC50)
O=C(CC12CC3CC(CC(C3)C1)C2)NCC(=O)N1CCN(Cc2cc(Cl)cc(C(F)(F)F)c2)CC1 [Compound 1326, 2-((1R,3R,5S)-Adamantan-1-yl)-N-(2-(4-(3-chloro-5-(trifluoromethyl)benzyl)piperazin-1-yl)-2-oxoethyl)acetamide]	6.04	
O=C(CC12CC3CC(CC(C3)C1)C2)NCC(=O)N1CCN(Cc2cc(Cl)cc(F)c2F)CC1 [Compound 1327, 2-((1R,3R,5S)-Adamantan-1-yl)-N-(2-(4-(5-chloro-2,3-difluorobenzyl)piperazin-1-yl)-2-oxoethyl)acetamide]	6.17	
COC(=O)c1ccc(COc2ccccc2CN2CCN(C(=O)CNC(=O)C3(C)CCC(F)(F)CC3)CC2)cc1 [Compound 1328, Methyl 4-((2-((4-((4,4-difluoro-1-methylcyclohexane-1-carbonyl)glycyl)piperazin-1-yl)methyl)phenoxy)methyl)benzoate]	6.60	
N#Cc1ccc(Br)cc1CN1CCN(C(=O)CNC(=O)CC23CC4CC(CC(C4)C2)C3)CC1 [Compound 1329, 2-((1R,3R,5S)-Adamantan-1-yl)-N-(2-(4-(5-bromo-2-cyanobenzyl)piperazin-1-yl)-2-oxoethyl)acetamide]	6.51	
O=C(CC12CC3CC(C1)C(C3)C2)NCC(=O)N1CCN(Cc2cc(Cl)cc(OC(F)(F)F)c2)CC1 [Compound 1330]	5.82	
O=C(CC12CC3CC(CC(C3)C1)C2)NCC(=O)N1CCN(Cc2cc(Cl)cc(Br)c2)CC1 [Compound 1332, 2-((1R,3R,5S)-Adamantan-1-yl)-N-(2-(4-(3-bromo-5-chlorobenzyl)piperazin-1-yl)-2-oxoethyl)acetamide]	6.05	
COC(=O)c1ccc(COc2ccc(Cl)cc2CN2CCN(C(=O)CNC(=O)CC3CCC(F)(F)CC3)CC2)cc1 [Compound 1333, Methyl 4-((4-chloro-2-((4-((2-(4,4-difluorocyclohexyl)acetyl)glycyl)piperazin-1-yl)methyl)phenoxy)methyl)benzoate]	7.82	
COC(=O)c1ccc(COc2ccc(Cl)cc2CN2CCN(C(=O)CNC(=O)CC3(C)CCCCC3)CC2)cc1 [Compound 1334, Methyl 4-((4-chloro-2-((4-((2-(1-methylcyclohexyl)acetyl)glycyl)piperazin-1-yl)methyl)phenoxy)methyl)benzoate]	7.72	
COC(=O)c1ccc(COc2ccc(F)cc2CN2CCN(C(=O)CNC(=O)CC3CCC(F)(F)CC3)CC2)cc1 [Compound 1335, Methyl 4-((2-((4-((2-(4,4-difluorocyclohexyl)acetyl)glycyl)piperazin-1-yl)methyl)-4-fluorophenoxy)methyl)benzoate]	7.74	
COC(=O)c1ccc(COc2ccc(F)cc2CN2CCN(C(=O)CNC(=O)CC3(C)CCCCC3)CC2)cc1 [Compound 1336, Methyl 4-((4-fluoro-2-((4-((2-(1-methylcyclohexyl)acetyl)glycyl)piperazin-1-yl)methyl)phenoxy)methyl)benzoate]	7.29	
O=C(CC12CC3CC(CC(C3)C1)C2)NCC(=O)N1CCN(Cc2cc(Br)ccc2F)CC1 [Compound 1337, 2-((1R,3R,5S)-Adamantan-1-yl)-N-(2-(4-(5-bromo-2-fluorobenzyl)piperazin-1-yl)-2-oxoethyl)acetamide]	5.92	
O=C(CC12CC3CC(CC(C3)C1)C2)NCC(=O)N1CCN(Cc2cc(Br)ccc2Cl)CC1 [Compound 1338, 2-((1R,3R,5S)-Adamantan-1-yl)-N-(2-(4-(5-bromo-2-chlorobenzyl)piperazin-1-yl)-2-oxoethyl)acetamide]	7.09	
O=C(CC12CC3CC(CC(C3)C1)C2)NCC(=O)N1CCN(Cc2cc(F)cc(Br)c2)CC1 [Compound 1339, 2-((1R,3R,5S)-Adamantan-1-yl)-N-(2-(4-(3-bromo-5-fluorobenzyl)piperazin-1-yl)-2-oxoethyl)acetamide]	5.85	
O=C(CC12CC3CC(CC(C3)C1)C2)NCC(=O)N1CCN(Cc2cc(Br)cc([N+](=O)[O-])c2)CC1 [Compound 1340, 2-((1R,3R,5S)-Adamantan-1-yl)-N-(2-(4-(3-bromo-5-nitrobenzyl)piperazin-1-yl)-2-oxoethyl)acetamide]	5.90	
Nc1cc(Br)cc(CN2CCN(C(=O)CNC(=O)CC34CC5CC(CC(C5)C3)C4)CC2)c1 [Compound 1341, 2-((1R,3R,5S)-Adamantan-1-yl)-N-(2-(4-(3-amino-5-bromobenzyl)piperazin-1-yl)-2-oxoethyl)acetamide]	6.49	
CC(=O)Nc1ccc(Cl)cc1CN1CCN(C(=O)CNC(=O)CC23CC4CC(CC(C4)C2)C3)CC1 [Compound 1342, N-(2-(4-(2-Acetamido-5-chlorobenzyl)piperazin-1-yl)-2-oxoethyl)-2-((3s)-adamantan-1-yl)acetamide]		5.96
COC(=O)c1ccc(COc2ccccc2CN2CCN(C(=O)CNC(=O)C3C4CC(F)(F)CC43)CC2)cc1 (stereo not shown) [Compound 1344, Methyl 4-((2-((4-((3,3-difluorobicyclo[3.1.0]hexane-6-carbonyl)glycyl)piperazin-1-yl)methyl)phenoxy)methyl)benzoate]	6.77	

— US11629139B2 (priority 2017, dated 2023)
